Drawing on US5476944A, “Derivatives of cyclic phenolic thioethers” (G. D. Searle & Co., priority 1994, dated 1995), this text covers IC50 for one molecule.

This experiment addresses T1, cellular COX-II (Homo sapiens, UniProt P35354).
T1 construct: stimulated human fetal dermal fibroblasts (HFDF, derived from primary cell cultures); endogenous in cells; host or cells: human fetal dermal fibroblasts (HFDF), primary, stimulated with IL-1 beta
T1 sequence (P35354 18-604): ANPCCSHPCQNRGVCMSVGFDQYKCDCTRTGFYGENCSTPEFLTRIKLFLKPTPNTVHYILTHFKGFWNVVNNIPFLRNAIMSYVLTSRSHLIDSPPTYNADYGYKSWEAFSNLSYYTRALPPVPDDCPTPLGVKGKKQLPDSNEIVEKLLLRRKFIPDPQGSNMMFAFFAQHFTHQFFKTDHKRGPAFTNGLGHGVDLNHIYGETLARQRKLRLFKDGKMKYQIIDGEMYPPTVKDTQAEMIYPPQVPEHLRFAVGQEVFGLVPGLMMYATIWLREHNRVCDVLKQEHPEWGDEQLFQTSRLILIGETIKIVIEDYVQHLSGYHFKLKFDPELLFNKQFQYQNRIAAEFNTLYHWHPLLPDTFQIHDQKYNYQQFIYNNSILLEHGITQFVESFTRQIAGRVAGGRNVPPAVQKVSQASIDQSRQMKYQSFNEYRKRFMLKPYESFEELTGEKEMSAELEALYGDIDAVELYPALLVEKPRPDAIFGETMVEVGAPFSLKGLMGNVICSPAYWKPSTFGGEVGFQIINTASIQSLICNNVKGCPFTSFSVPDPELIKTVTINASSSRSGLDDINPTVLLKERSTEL
The experiment can be described thus: Cellular COX-II Assay (Cell Fibroblast Assay), IL-1 stimulated human fetal dermal fibroblasts, PGE2. In kind it is cell-based. The following applies: IL-1 beta stimulated human fetal dermal fibroblasts. How it is done: The compounds of the invention are evaluated with respect to the inhibition of cellular COX-II in vitro according to the following Cellular COX-II Assay (Cell Fibroblast Assay).
Cellular COX-II Assay (Cell Fibroblast Assay)
Inhibition of cellular COX-II by test compounds is determined using stimulated human fetal dermal fibroblasts (HFDF, derived from primary cell cultures). Fibroblasts are cultured in microtiter wells at 1.5×10^4 cells/well in Dulbecco's Modified Eagle's Media (DMEM)(Gibco/BRL, Gaithersburg, Md. Sigma Chemical Co., St. Louis, Mo.) containing 4500 mg glucose/L, 100 units penicillin G/ml and 0.1 mg streptomycin/ml, 4 mM L-glutamine, 25 mM Hepes and 10% Fetal Bovine Serum (Gibco/BRL, Gaithersburg, Md. Bioproducts For Science, Inc., Indianapolis,Ind.). Following a 3-day incubation at 37° C., the culture media is removed by aspiration using low vacuum, and the cells are stimulated overnight with medium containing human recombinant IL-1 (interleukin-1) beta (1 ng/ml)(Cistron, Pine Brook, N.J.). The next day, the fibroblasts are washed with Phosphate Buffered Saline, and 185 μl of DMEM is added to each well. The cells are placed in a 37° C. incubator for 15 minutes. Compounds are then added to the cells using seven half-log dilutions in duplicate determinations. Cells are incubated with test compounds at 37° C. for 30 minutes. The COX-II substrate arachidonic acid (20 μM; Nu-Chek-Prep Inc., Elysian, Minn.) is then added to the cell cultures and the plates are incubated for 10 minutes at 37° C. Supernatants are collected and Prostaglandin E2 (PGE2) production is measured by an enzyme-linked immunosorbent assay (ELISA; antibodies produced by Cayman Chemical Company, Ann Arbor, Mich.). […] PG,60
The following is a description of how the activities of the compounds of the present invention may be determined.
A run of this assay consists of one (or more) plates, each containing, along with the standard (in row A), (1) two wells of unstimulated material (in col. 12), (2) five wells of stimulated material (in col. 12), (3) seven wells (one per concentration) for indomethacin (in col. 11), and (4) two wells at each of seven concentrations for five test compounds, one of which is a repeat of indomethacin. The response (ng/ml Eicosanoid) is estimated from the Standard curve and is highest at low concentrations and decreases as the concentration increases. If the response is plotted on the y-axis and the log of the concentration is plotted on the x-axis, the dose-response pattern for these assays is typically a symmetrical, sigmoidal shaped curve. If a full range of concentrations is used, the complete sigmoidal curve may be seen, starting with an upper asymptote, falling at some degree of steepness, and then leveling off at a lower asymptote. The IC50 is defined as the concentration corresponding to a response midway between the upper and lower plateaus. A theoretic "dose-response" model is used to estimate the IC50.
The procedure described below was used to define the minimum and maximum responses for the compounds on a plate.
The procedure uses information for indomethacin and the rest of the plate in defining the minimum and maximum response. The justification for doing this is as follows. Enough runs have been done with indomethacin to determine and use a range of concentrations such that the response to the lowest concentrations is on the upper plateau of the sigmoidal curve and the response to the highest concentrations is on the lower plateau of the sigmoidal curve. For the other compounds, if a response is measured which is less than the response for the unstimulated wells, then this response may be considered to be another estimate of a minimal response. Likewise, if a response is measured which is greater than the response for the stimulated wells, then this response may be considered to be another estimate of a maximal response. Based on this reasoning, the minimum is estimated as follows: […]

The structures appear in SMILES notation.

Consider `CC(C)(C)c1cc(S[C@H]2CCCC[C@H]2OCC(=O)O)cc(C(C)(C)C)c1` (racemic) [Example 72, (±)cis-2-[[2-[[3,5-bis(1,1-dimethylethyl)phenyl]thio]cyclohexyl]oxy]acetic acid], for which the 50% inhibitory concentration (IC50) – broadly, the concentration needed to halve the response being measured – came out at 370 nM.
